Measurements taken from ChEMBL document CHEMBL1126398, “(5S)-3-aryl-5-(1-piperidinylmethyl)-2-oxazolidinones, a new class of potential neuroleptics with a high affinity for sigma receptors” (Bioorg Med Chem Lett, 1992).
pIC50: −log10 of the molar value.

Molecular target: D(2) dopamine receptor (Rattus norvegicus, UniProt P61169)
Test: Binding affinity against the Dopamine receptor D2 in rat striatum by using [3H]spiperone radioligand
Format: tissue-based

Sequence of D(2) dopamine receptor (P61169 whole entry): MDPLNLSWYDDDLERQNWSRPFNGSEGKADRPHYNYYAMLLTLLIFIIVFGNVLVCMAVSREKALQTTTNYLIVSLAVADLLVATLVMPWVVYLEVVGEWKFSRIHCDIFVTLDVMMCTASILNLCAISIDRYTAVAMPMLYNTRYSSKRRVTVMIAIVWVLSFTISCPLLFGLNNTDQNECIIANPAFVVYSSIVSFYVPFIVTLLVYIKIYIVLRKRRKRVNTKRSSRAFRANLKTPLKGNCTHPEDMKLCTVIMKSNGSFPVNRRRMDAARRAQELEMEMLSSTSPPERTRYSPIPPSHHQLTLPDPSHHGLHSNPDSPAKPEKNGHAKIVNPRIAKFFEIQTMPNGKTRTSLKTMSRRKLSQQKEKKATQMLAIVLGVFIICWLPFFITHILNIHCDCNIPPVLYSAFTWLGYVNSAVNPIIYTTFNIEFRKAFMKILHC

- pIC50: 5.31
Structure (SMILES): OC(CCCN1CCN(c2ncc(F)cn2)CC1)c1ccc(F)cc1 (stereo unspecified) [BMY-14802]
